The supplement of paper PMC10307832

Assays:
Assay in all cases: relative viability (nuclei count vs DMSO), 5 days (fraction); higher = more cells survive
[1] = compound: CN1CCN(CC1)C2=CC(=C(C=C2)NC3=NC(=C(S3)C(=O)C4=C(C=CC=C4Cl)Cl)N)OC [XMD14-99] + CCNC(=O)c1noc(-c2cc(C(C)C)c(O)cc2O)c1-c1ccc(CN2CCOCC2)cc1 [Luminespib] (partner 0.01 µM)
Outline: (§1)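 Lung cancer cell lines, seeded in 1536-well plates, were treated the following day by pin tool with a single drug or with five library-drug doses (not always all listed) in √10 steps on top of a fixed anchor-drug dose. Cells were fixed and nuclei stained in one step after 5 days, and nuclei were counted. Relative viability is the nuclei count for treated wells divided by that for vehicle wells, reported as medians of duplicate plates.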

[2] = compound: CN1CCN(CC1)C2=CC(=C(C=C2)NC3=NC(=C(S3)C(=O)C4=C(C=CC=C4Cl)Cl)N)OC [XMD14-99] + Nc1ncn([C@H]2C[C@H](O)[C@@H](CO)O2)c(=O)n1 [Decitabine] (partner 2 µM)
Outline: as §1

[3] = compound: N[C@@H]1CCCN(c2c(/C=C3\SC(=O)NC3=O)cccc2-c2ccccc2)C1 [AZD1208] + C[C@]1(O)C[C@@H](c2nc(-c3ccc4ccc(-c5ccccc5)nc4c3)c3c(N)nccn32)C1 [Linsitinib] (partner 1 µM)
Outline: as §1

[4] = compound: CN1CCN(CC1)C2=CC(=C(C=C2)NC3=NC(=C(S3)C(=O)C4=C(C=CC=C4Cl)Cl)N)OC [XMD14-99] + N=C(N)NC(=N)NCCc1ccccc1 [Phenformin] (partner 250 µM)
Outline: as §1

Cell Line | relative viability ([1]; first compound 0.08 µM) | relative viability ([1]; first compound 0.8 µM) | relative viability ([1]; first compound 2.53 µM) | relative viability ([1]; first compound 8 µM) | relative viability ([2]; first compound 0.08 µM) | relative viability ([2]; first compound 0.8 µM) | relative viability ([2]; first compound 2.53 µM) | relative viability ([2]; first compound 8 µM) | relative viability ([3]; first compound 0.08 µM) | relative viability ([3]; first compound 0.253 µM) | relative viability ([3]; first compound 0.8 µM) | relative viability ([3]; first compound 2.53 µM) | relative viability ([3]; first compound 8 µM) | relative viability ([4]; first compound 0.08 µM) | relative viability ([4]; first compound 0.8 µM) | relative viability ([4]; first compound 2.53 µM) | relative viability ([4]; first compound 8 µM)
BEN | 0.377 | 0.419 | 0.271 | 0.285 | 0.853 | 0.701 | 0.707 | 0.558 | 0.815 | 0.806 | 0.654 | 0.572 | 0.46 | 0.26 | 0.292 | 0.248 | 0.257
LCLC-103H | 0.984 | 1.1 | 0.84 | 0.847 | 0.715 | 0.739 | 0.721 | 0.682 | 1.04 | 1.09 | 1.06 | 1.11 | 0.891 | 0.294 | 0.348 | 0.318 | 0.298
EKVX | 0.905 | 0.814 | 0.768 | 0.802 | 0.274 | 0.322 | 0.316 | 0.239 | 0.996 | 1.19 | 0.917 | 0.87 | 1.11 | 0.261 | 0.246 | 0.227 | 0.23
LXF-289 | 0.586 | 0.672 | 0.639 | 0.634 | 0.378 | 0.371 | 0.37 | 0.36 | 0.982 | 1.01 | 0.966 | 1.01 | 1.01 | 0.52 | 0.502 | 0.487 | 0.457
ABC-1 | 0.511 | 0.7 | 0.806 | 0.382 | 1.1 | 1.05 | 0.679 | 0.935 | 0.808 | 0.717 | 0.626 | 0.747 | 0.732 | 0.237 | 0.203 | 0.227 | 0.232
NCI-H661 | 0.855 | 0.778 | 0.697 | 0.55 | 0.562 | 0.55 | 0.502 | 0.44 | 0.505 | 0.568 | 0.519 | 0.416 | 0.483 | 0.292 | 0.272 | 0.263 | 0.296
NCI-H2087 | 0.151 | 0.173 | 0.179 | 0.135 | 0.282 | 0.264 | 0.234 | 0.192 | 0.87 | 0.941 | 0.934 | 1 | 0.787 | 0.445 | 0.408 | 0.346 | 0.2
NCI-H1793 | 0.232 | 0.184 | 0.499 | 0.25 | 0.502 | 0.521 | 0.473 | 0.427 | 0.765 | 0.804 | 0.564 | 0.967 | 0.583 | 0.367 | 0.337 | 0.249 | 0.288
LC-2-ad | 1.04 | 0.984 | 0.824 | 0.582 | 0.776 | 0.727 | 0.777 | 0.745 | 0.803 | 0.673 | 0.833 | 0.801 | 0.894 | 0.611 | 0.554 | 0.58 | 0.505
COR-L 105 | 0.693 | 0.845 | 0.778 | 0.466 | 0.718 | 0.651 | 0.606 | 0.604 | 0.985 | 0.884 | 0.972 | 0.949 | 0.939 | 0.477 | 0.494 | 0.398 | 0.371
NCI-H1355 | 0.843 | 0.799 | 0.67 | 0.617 | 0.381 | 0.339 | 0.343 | 0.346 | 0.846 | 0.921 | 0.718 | 0.737 | 0.695 | 0.518 | 0.473 | 0.424 | 0.36
H3255 | 0.958 | 0.934 | 0.781 | 0.614 | 0.584 | 0.674 | 0.546 | 0.513 | 1.02 | 1.05 | 0.866 | 0.973 | 0.891 | 0.384 | 0.398 | 0.337 | 0.335
NCI-H2009 | 1.08 | 0.949 | 0.958 | 0.871 | 0.342 | 0.343 | 0.378 | 0.371 | 1.22 | 1.13 | 1.18 | 1.14 | 1.12 | 0.482 | 0.442 | 0.331 | 0.251
NCI-H1734 | 0.175 | 0.179 | 0.172 | 0.185 | 0.505 | 0.494 | 0.477 | 0.477 | 0.728 | 0.807 | 0.795 | 0.791 | 0.603 | 0.348 | 0.376 | 0.368 | 0.381
HOP-62 | 0.93 | 0.878 | 0.846 | 0.778 | 0.23 | 0.226 | 0.237 | 0.273 | 1.06 | 0.843 | 1.05 | 1.11 | 0.623 | 0.707 | 0.648 | 0.643 | 0.547
LOU-NH91 | 0.443 | 0.325 | 0.294 | 0.3 | 0.868 | 0.853 | 0.807 | 0.776 | 0.953 | 0.934 | 0.855 | 0.949 | 0.822 | 0.716 | 0.777 | 0.573 | 0.556
NCI-H23 | 0.199 | 0.247 | 0.214 | 0.202 | 0.288 | 0.262 | 0.338 | 0.309 | 0.453 | 0.539 | 0.462 | 0.434 | 0.461 | 0.767 | 0.85 | 0.741 | 0.659
